Laboratory results published in US20240041037A1, “DISINFECTANT AND USE THEREOF” (priority 2021, published 2024).

Experiments:
Type in all cases: cell-based
[1] = system: Bacteria (aerobic spore-formers); test: Germ content determination (Ph. Eur. 6.8, Chapter 2.6.12) of aqueous walnut shell meal slurry: bacteria
Experimental: (§1) Test Equipment: • A BF 720 incubator is used. • A spiral plater is used as a plating device, with which a predefined volume of the suspension to be checked for germs is applied to the culture medium. For example, an Eddy-Jet 2W spiral plater is used.
(§2) The germ count takes place in the screening by the Envirocheck® system for confirmation according to the Ph Eur.6.8. Chapter 2.6.12.
(§3) Subculturing: • The subculturing is carried out by a spiral plater using a corresponding program, depending on the requirements (for example, in one program, higher germ quantities may be more easily broken down by the gradient of the applied product or, in another program, a greater amount may be applied, which drops the lower determination limit). • One (in the case of double samples, two) fungus culture medium and one bacteria culture medium each are taken for each sample. • Standard total germ count checks are performed with no double determination.
(§4) Neutralization: • A neutralization, if it is to be carried out, takes place using 50% NaOH.
(§5) Incubation: • Bacteria: 2-3 days at 30+/−2° C. in the corresponding incubators; • Yeast/fungus: 3-5 days at room temperature away from light.
(§6) . This amount was maintained at pH 2.9 in the subsequent tests. Following a predefined time span T in minutes, one sample each was collected and incubated for 48 hours in an incubator in order to subsequently determine its germ load. The time span T thus corresponds to the contact time of the disinfectant, in the present case only citric acid.
(§7) The germ count after incubation takes place using the Environcheck® test sticks immediately or in an outside laboratory. For the external check, the product is cooled and stored for at least 1 day at 8° C. and transferred in a polystyrene box.
(§8) The germ content determination is based on the Ph. Eur.6.8—germ content, Chapter 2.6.12
(§9) […]. The sample was then again adjusted to pH 7 using sodium hydroxide solution and incubated in the incubator for 48 hours. The germs in the individual samples were subsequently counted again using the Envirocheck® system internally or using an outside institute by a previously cooled stored product for 1 day.
(§10) . The germ count determination is based on the Ph. Eur. 6.8—Germ content, Chapter 2.6.12

[2] = system: total germ count of walnut shell meal slurry; test: Germ content determination (Ph. Eur. 6.8, Chapter 2.6.12) of aqueous walnut shell meal slurry: total germ count
Experimental: as §1, §2, §4, §5
Following a predefined time span T in minutes, one sample each was collected and incubated for 48 hours in an incubator in order to subsequently determine its germ load.
as §7, §8
The subsequent incubation of the sample took place over 48 hours.
The sample was then again adjusted to pH 7 using sodium hydroxide solution and incubated in the incubator for 48 hours. The germs in the individual samples were subsequently counted again using the Envirocheck® system internally or using an outside institute by a previously cooled stored product for 1 day.
The germ count determination is based on the Ph. Eur. 6.8—Germ content, Chapter 2.6.12

[3] = system: Yeasts; test: Germ content determination (Ph. Eur. 6.8, Chapter 2.6.12) of aqueous walnut shell meal slurry: yeasts
Experimental: as §1, §2, §3, §4, §5, §6, §7, §8, §9, §10

[4] = system: Fungi; test: Germ content determination (Ph. Eur. 6.8, Chapter 2.6.12) of aqueous walnut shell meal slurry: fungi
Experimental: as §1, §2, §3, §4, §5, §6, §7, §8, §9, §10

[5] = pH 2.9, contact time 15 minutes
[6] = pH 2.9, contact time 30 minutes
[7] = pH 2.9, contact time 45 minutes
[8] = pH 2.9, contact time 60 minutes

Question: What does the source list for `O=C(O)CC(O)(CC(=O)O)C(=O)O` [citric acid]?
Answer: Bacteria [1, 5]: 60 CFU/g or mL; Bacteria [1, 6]: 100 CFU/g or mL; Bacteria [1, 7]: 200 CFU/g or mL; Bacteria [1, 8]: 170 CFU/g or mL; TGC (total germ count) [2, 5]: 250 CFU/g or mL; TGC (total germ count) [2, 6]: 295 CFU/g or mL; TGC (total germ count) [2, 7]: 235 CFU/g or mL; Yeasts [3, 5]: 140 CFU/g or mL; Yeasts [3, 6]: 140 CFU/g or mL; Yeasts [3, 7]: — (<7 CFU/g or mL); Yeasts [3, 8]: 35 CFU/g or mL; Fungi [4, 5]: 50 CFU/g or mL; Fungi [4, 6]: 55 CFU/g or mL; Fungi [4, 7]: 35 CFU/g or mL; Fungi [4, 8]: 20 CFU/g or mL

Question: Which “contact time after which germ load reduction clearly identifiable” value ([2]; pH 2.9) does the source give for `CC(O)C(=O)O` (stereo not shown) [lactic acid] here?
Answer: 5 min
